Laboratory results: patent publication US20240216375A1, “USE OF S[…] AND/OR ALPHA 1-ADRENERGIC RECEPTOR INHIBITOR IN PREPARING MEDICINE FOR TREATING DRY EYES” (Eye Institute of Shandong First Medical University …, priority 2022, published 2024)

What was measured:
Format in all cases: in vivo
[1] = test system: mice treated with scopolamine (dry eye model); experiment: Corneal staining by fluorescein sodium in scopolamine-induced dry eye model mice; conditions: intraperitoneal injection 100 mg/kg, 7th day of treatment
Procedure: (§1) Female C57BL/6 mice were selected for the experiment and placed in a perforated cage with a constant fan flow and a humidity <20%. The modeled mice with dry eye were induced by subcutaneous injection of scopolamine (0.5 mg/0.2 ml, 3 times a day) for 7 consecutive days (refer to the following literature: Wu Y, Bu J, Yang Y, et al. Therapeutic effect of MK2 inhibitor on experimental murine dry eye. Invest Ophthalmol Vis Sci. 2017; 58:4898-4907), the mice not treated and fed under a normal condition were used as a control, and the experimental mice had no corneal defects and neovascularization or conjunctival damage.
Staining by fluorescein sodium was used to observe damage of a corneal epithelial barrier function, observation was performed with a slit lamp, and photographing was performed. The result was shown in FIG. 2 (corneal staining by fluorescein sodium 7 days after modeling of mice treated with scopolamine). Compared with the mice in the control group, the mice in the scopolamine group were positive in staining by fluorescein sodium in scopolamine 7 days after modeling.
After 7 days of the treatment, staining by sodium fluorescein was used to observe damage of a corneal epithelial barrier function. The lacrimal glands of the mice were taken for qPCR detection. […]

[2] = test system: mice treated with scopolamine (dry eye model); experiment: Tear secretion (phenol red cotton thread) in scopolamine-induced dry eye model mice; conditions: intraperitoneal injection 100 mg/kg once a day from 3rd day after modeling for 4 days, observed 5 and 7 days, vs normal saline
[3] = test system: mice with diabetes; experiment: Tear secretion in mice with diabetes (STZ type 1 diabetes model, diabetes-associated dry eye); conditions: intraperitoneal injection 100 mg/kg once a day for 4 days, observed 5 and 7 days, vs normal saline
Procedure: A phenol red cotton thread was used to detect the tear production of mice. One end of the phenol red cotton thread was placed at an inner ⅓ of the conjunctival sac of the lower eyelid, after 20 s, the phenol red cotton thread was taken out, and the length of the cotton thread wetted with tears was measured. The result was shown in FIG. 1 (tear secretion after modeling of mice treated with scopolamine).
Male C57BL/6 mice were selected, a type 1 diabetes model was established by intraperitoneal injection of streptozotocin (STZ) (the establishment method refers to the prior art: Lingling, Yang, Guohu, Di, Xia, & Qi, et al. Substance p promotes diabetic corneal epithelial wound healing through molecular mechanisms mediated via the neurokinin-1 receptor. Diabetes. 2014; 63: 4262-4274.), and the mice with blood glucose value greater than 300 mg/dL were screened for experiments after 1 month. The mice not treated and fed under a normal condition were used as a control, and the experimental mice had no corneal defects and neovascularization or conjunctival damage. The result was shown in FIG. 11 (tear secretion and ocular surface inflammation after modeling of mice with diabetes, tear secretion (left) and ocular surface inflammation (right)). […]

[4] = test system: mice treated with scopolamine (dry eye model); experiment: Expression levels of inflammatory factors of the lacrimal gland by qPCR in scopolamine-induced dry eye model mice; conditions: intraperitoneal injection 100 mg/kg, 7th day of treatment
Procedure: as §1
After 7 days of modeling, the lacrimal glands and the corneas of the mice were taken to extract mRNA. Expression levels of inflammatory factors TNFα, TGFβ1, and IL-1β were detected by qPCR. The result was shown in FIG. 3 (expression levels of inflammatory factors of the lacrimal glands (left) and the corneas (right) 7 days after modeling of mice treated with scopolamine).
After 7 days of the treatment, staining by sodium fluorescein was used to observe damage of a corneal epithelial barrier function. The lacrimal glands of the mice were taken for qPCR detection.
On the 7th day of the treatment, staining by sodium fluorescein was used to observe damage of a corneal epithelial barrier function. The lacrimal glands of the mice were taken for qPCR detection.

Question: With `NCCc1cc(O)c(O)cc1O` [6-hydroxydopamine] as the molecule, how does the “staining of ocular surface by fluorescein sodium” value [1] read?
Answer: reduce staining of an ocular surface by fluorescein sodium

Question: What about the tear secretion [2] of the same molecule?
Answer: significantly increase the tear secretion

Question: And the tear secretion [3]?
Answer: significantly increase the tear secretion

Question: What about the “expression levels of inflammatory factors TNFα and TGFβ1 of the lacrimal gland” value [4] of the same molecule?
Answer: decrease expression levels of inflammatory factors TNFα and TGFβ1
